In patent publication US7595330B2, “Benzimidazole thiophene compounds” (SmithKline Beecham Corporation, priority 2005, dated 2009):
Read-outs that look alike come from different tables or passages of the source.

Assays:
HCT116 = test: Methylene blue growth inhibition assay, HCT116; type: cell-based; settings: Homo sapiens
Procedure: (§1) II. Methylene Blue Growth Inhibition Assay—Inhibition of Cell Proliferation by PLK1 Inhibitors
(§2) Generally, exponentially growing cell lines of different tumor origins, cultured in appropriate media containing 10% fetal bovine serum at 37° C. in a 5% CO2 incubator were plated at low density (less than 2000 cells/well) in 96-well plates. […]. Seventy two hours post-treatment, cell numbers were determined using 100 μl per well of methylene blue (Sigma M9140) (0.5% in 50:50 Ethanol:water). Stain was incubated at room temperature for 30 minutes before plates were rinsed and dye solubilized in 1% N-lauroyl sarcosine, sodium salt, (Sigma L5125, in PBS) (further details of a methylene blue assay are described below). Plates were read on a microplate reader, measuring the OD at 620 nm.
(§3) . The data are shown in Table 1 below and represent a compilation of several different experiments, each performed using the general parameters outlined above, although minor variations may have been employed in some instances.
(§4) In one assay, normal human foreskin fibroblasts (HFF), human colon (HCT116, RKO), lung (H460, A549) and breast (MCF7) tumor cell lines were cultured in high glucose DMEM (Life Technologies) containing 10% fetal bovine serum (FBS) at 37° C. in a humidified 5% CO2, 95% air incubator. Cells were harvested using trypsin/EDTA, counted using a haemocytometer, and plated in 100 μL of culture media per well, at the following densities, in a 96-well tissue culture plate (Falcon 3075): HFF 5,000 cells/well, HCT116 3,000 cells/well, RKO 2,500 cells/well, H460 2,500 cells/well, A549 5,000 cells/well, MCF7 4,000 cells/well. The next day, compounds were diluted in low glucose DMEM containing 100 μg/mL gentamicin, at twice the final required concentration, from 10 mM stock solutions in DMSO. 100 μL/well of these dilutions were added to the 100 μL of media currently in the assay plates. Medium containing 0.6% DMSO was added to control wells. The final concentration of DMSO in all wells was 0.3%. Cells were incubated at 37° C., 5% CO2 for 72 h. Medium was removed by aspiration. Cell biomass was estimated by staining cells with 80 μL per well methylene blue (Sigma M9140, 0.5% in 50:50 ethanol:water), and incubation at room temperature for 30-60 min. Stain was removed by aspiration and the plates rinsed by immersion in water, then air-dried. To release stain from the cells, 100 μL of solubilization solution was added (1% N-lauroyl sarcosine, Sodium salt, Sigma L5125, in PBS), and plates were shaken gently for about 30 min. Optical density at 620 nm was measured on a microplate reader. Percent inhibition of cell growth was calculated relative to vehicle treated control wells. […].

[1] = system: normal human foreskin fibroblasts (HFF); test: Methylene blue growth inhibition assay, HFF; type: cell-based; settings: Fibroblast, 72 h
Procedure: as §1, §2, §3, §4

[2] = High throughput solubility assay; type: physicochemical; settings: aqueous buffer, pH 7.4, 0.05M phosphate buffer
Procedure: IV. High Throughput Solubility Assay
Two samples are prepared for each compound. One (the standard sample) contains the compound at a fixed concentration of 20 μM in an aqueous/organic mixed solvent cocktail. The other (the test sample) contains the compound at a maximum concentration of 200 μM in pH 7.4, 0.05M phosphate buffer and shaking for 24 h. The test sample is filtered by 0.45μ filter and then spun for 10 min to remove any undissolved solid. HPLC analyses are preformed on these samples. The peak areas are used for computing solubility.

PLK1 kinase domain = molecular target: T1, PLK1 kinase domain (Homo sapiens, UniProt P53350); test: Assay for inhibition of PLK1 (SPA, 33P-ATP, biotinylated peptide substrate); type: biochemical; settings: 1 μM ATP, 2 nM PLK1 kinase domain; read-out: PLK1 pIC50 (converted)
T1 construct: made in house; host or cells: baculovirus infected T. ni cells
T1 sequence (P53350 21-346): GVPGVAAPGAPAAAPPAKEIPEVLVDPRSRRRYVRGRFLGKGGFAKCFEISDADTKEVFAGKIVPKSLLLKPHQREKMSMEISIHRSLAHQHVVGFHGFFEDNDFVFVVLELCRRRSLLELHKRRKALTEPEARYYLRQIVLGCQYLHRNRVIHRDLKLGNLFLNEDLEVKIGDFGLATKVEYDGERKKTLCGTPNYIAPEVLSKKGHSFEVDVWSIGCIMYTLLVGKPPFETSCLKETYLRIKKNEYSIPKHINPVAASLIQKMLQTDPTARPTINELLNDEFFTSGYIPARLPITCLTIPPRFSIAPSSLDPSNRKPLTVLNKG
Procedure: I. Assay for Inhibition of PLK1
All procedures were performed at 4° C. Cells were lysed in 50 mM HEPES, 200 mM NaCl, 50 mM imidazole, 5% glycerol; pH 7.5. The homogenate was centrifuged at 14K rpm in a SLA-1500 rotor for 1 h and the supernatant filtered through a 1.2 micron filter. The supernatant was loaded onto a Nickel chelating Sepharose (Amersham Pharmacia) column and washed with lysis buffer. Protein was eluted using 20%, 30% and 100% buffer B steps where buffer B is 50 mM HEPES, 200 mM NaCl, 300 mM imidazole, 5% glycerol; pH 7.5. Fractions containing PLK were determined by SDS-PAGE. Fractions containing PLK were diluted five-fold with 50 mM HEPES, 1 mM DTT, 5% glycerol; pH 7.5, then loaded on an SP Sepharose (Amersham Pharmacia) column. After washing the column with 50 mM HEPES, 1 mM DTT, 5% glycerol; pH 7.5, PLK was step eluted with 50 mM HEPES, 1 mM DTT, 500 mM NaCl; 5% glycerol; pH 7.5. PLK was concentrated using a 10 kDa molecular weight cutoff membrane and then loaded onto a Superdex 200 gel filtration (Amersham Pharmacia) column equilibrated in 25 mM HEPES, 1 mM DTT, 500 mM NaCl, 5% glycerol; pH 7.5. Fractions containing PLK were determined by SDS-PAGE. PLK was pooled, aliquoted and stored at −80° C. Samples were quality controlled using mass spectrometry, N-terminal sequencing and amino acid analysis.
B. Enzyme activity +/− inhibitors was determined as follows: All measurements were obtained under conditions where signal production increased linearly with time and enzyme. Test compounds were added to white 384-well assay plates (0.1 μL for 10 μL and some 20 μL assays, 1 μL for some 20 μL assays) at variable known concentrations in 100% DMSO. DMSO (1-5% final, as appropriate) and EDTA (65 mM in reaction) were used as controls.
Reaction Mix (10 or 20 μL) was quickly added to each well immediately following addition of enzyme via automated liquid handlers and incubated 1-1.5 h at 22° C. The 20 μL enzymatic reactions were stopped with 50 μL of stop mix (50 mM EDTA, 4.0 mg/ml Streptavidin SPA beads in Standard Dulbecco's PBS (without Mg^2+ and Ca^2+), 50 μM ATP) per well. The 10 μL reactions were stopped with 10 μL of stop mix (50 mM EDTA, 3.0 mg/mL Streptavidin-coupled SPA Imaging Beads (“LeadSeeker”) in Standard Dulbecco's PBS (without Mg^2+ and Ca^2+), 50 μM ATP) per well. Plates were sealed with clear plastic seals, spun at 500×g for 1 min or settled overnight, and counted in Packard TopCount for 30 seconds/well (regular SPA) or imaged using a Viewlux imager (LeadSeeker SPA). Signal above background (EDTA controls) was converted to percent inhibition relative to that obtained in control (DMSO-only) wells.

RKO = test: Methylene blue growth inhibition assay, RKO; type: cell-based; settings: Homo sapiens, 72 h
Procedure: as §1, §2, §3, §4

A549 = test: Methylene blue growth inhibition assay, A549; type: cell-based; settings: Homo sapiens
Procedure: as §1, §2, §3, §4

MCF7 = test: Methylene blue growth inhibition assay, MCF7; type: cell-based; settings: Homo sapiens
Procedure: as §1, §2, §3, §4

human plasma proteins = test: Protein binding to human plasma proteins using equilibrium dialysis; type: in vitro ADME; settings: pH 7.4, equilibrium dialysis 6 h, 37° C.
Procedure: III. Determination of Protein Binding to Human Plasma Proteins Using Equilibrium Dialysis
96 Well Plate (High Throughput Dialysis): Stock solutions of compounds were spiked into human plasma at a target concentration of 2000 ng/mL. The mixture was inverted gently several times to insure homogeneity and triplicate 50 μL aliquots were collected to verify initial concentrations. Following assembly of dialysis plate (HTDialysis membrane strips, molecular weight cut off limit of 12,000-14,000 daltons), spiked plasma (150 μL) was placed in the donor compartment of the well and Phosphate Buffered Saline pH 7.4 (150 μL) in the receiver compartment. Eight wells were set up per compound and plasma type. Plate was placed in a 37° C. incubator on a plate shaker. Following the 6 h incubation period, the plate was removed. Single 50 μL aliquots from each donor and receiver compartment (per well) were analyzed. Sample analysis was by LC/MS/MS (results reported as Drug Peak Area/Internal Standard Peak Area ratios). Protein binding assay can also be performed using dialysis cells instead of HT Dialysis 96 well plates. In Table 1, % Protein Binding, +=>98%; ++=95-98%: +++=<95%.

H460 = test: Methylene blue growth inhibition assay, H460; type: cell-based; settings: Homo sapiens
Procedure: as §1, §2, §3, §4

[3] = HCT-116, methylene blue, 72 h, HCT116, read-out: HCT116 IC50
[4] = methylene blue, HFF normal fibroblasts, read-out: HFF IC50
[5] = methylene blue, read-out: RKO IC50
[6] = methylene blue, 72 h, A549, read-out: A549 IC50
[7] = methylene blue, 72 h, MCF7, read-out: MCF7 IC50
[8] = NCI-H460, methylene blue, 72 h, H460, read-out: H460 IC50

IC50 (HCT116; [3])	solubility at 24 h [2]	IC50 (PLK1 kinase domain)	IC50 (A549; [6])	IC50 (MCF7; [7])	fraction unbound at 6 h, 2000 ng/mL (human plasma proteins)	IC50 (H460; [8])	Compound	IC50 [1, 4]	IC50 (RKO; [5])	IC50 (HCT116; HCT-116, 72 h, read-out: HCT116 IC50 (μM))	IC50 ([1]; read-out: HFF IC50 (μM))	IC50 (RKO; read-out: RKO IC50 (μM))	IC50 (A549; A549, 72 h, read-out: A549 IC50 (μM))	IC50 (MCF7; MCF7, 72 h, read-out: MCF7 IC50 (μM))	IC50 (H460; NCI-H460, 72 h, read-out: H460 IC50 (μM))
< 0.1 µM	30 to 100 µM	< 0.01 µM	< 0.1 µM	< 0.1 µM	0.02 to 0.05	< 0.1 µM	C[C@@H](Oc1cc(-n2cnc3ccc(CS(C)(=O)=O)cc32)sc1C(N)=O)c1ccccc1Cl [Example 2, 3-{[(1R)-1-(2-Chlorophenyl)ethyl]oxy}-5-{6-[(methylsulfonyl)methyl]-1H-benzimidazol-1-yl}-2-thiophenecarboxamide]	0.1 to 1 µM	< 0.1 µM						
< 0.1 µM	> 100 µM	< 0.01 µM	< 0.1 µM	< 0.1 µM		< 0.1 µM	C[C@@H](Oc1cc(-n2cnc3ccc(CN4CCN(C)CC4)cc32)sc1C(N)=O)c1ccccc1Cl [Example 4, 3-{[(1R)-1-(2-Chlorophenyl)ethyl]oxy}-5-{6-[(4-methylpiperazin-1-yl)methyl]-1H-benzimidazol-1-yl}thiophene-2-carboxamide]	< 0.1 µM	< 0.1 µM						
	> 100 µM				> 0.05		C[C@@H](Oc1cc(-n2cnc3ccc(OC4CCN(C)CC4)cc32)sc1C(N)=O)c1ccccc1C(F)(F)F [Example 7, 5-{6-[(1-Methyl-4-piperidinyl)oxy]-1H-benzimidazol-1-yl}-3-({(1R)-1-[2-(trifluoromethyl)phenyl]ethyl}oxy)-2-thiophenecarboxamide]								
< 0.1 µM	> 100 µM	< 0.01 µM	< 0.1 µM		> 0.05	< 0.1 µM	C[C@@H](Oc1cc(-n2cnc3ccc(OC4CCNCC4)cc32)sc1C(N)=O)c1ccccc1Cl [Example 6, 3-{[(1R)-1-(2-Chlorophenyl)ethyl]oxy}-5-[6-(4-piperidinyloxy)-1H-benzimidazol-1-yl]-2-thiophenecarboxamide]	0.1 to 1 µM	< 0.1 µM						
< 0.1 µM	30 to 100 µM	< 0.01 µM	< 0.1 µM	< 0.1 µM	0.02 to 0.05	< 0.1 µM	C[C@@H](Oc1cc(-n2cnc3ccc(CS(C)(=O)=O)cc32)sc1C(N)=O)c1ccccc1C(F)(F)F [Example 1, 5-{6-[(Methylsulfonyl)methyl]-1H-benzimidazol-1-yl}-3-({(1R)-1-[2-(trifluoromethyl)phenyl]ethyl}oxy)-2-thiophenecarboxamide]	0.1 to 1 µM	< 0.1 µM						
> 1 µM		0.01 to 1 µM	> 1 µM	> 1 µM	0.02 to 0.05	> 1 µM	CS(=O)(=O)c1ccc2ncn(-c3cc(OCc4ccccc4C(F)(F)F)c(C(N)=O)s3)c2c1 [Com. Ex 121, reference compound]	> 1 µM	> 1 µM						
	> 100 µM				> 0.05		C[C@@H](Oc1cc(-n2cnc3ccc(OC4CCN(C)CC4)cc32)sc1C(N)=O)c1ccccc1Cl [Example 8, 3-{[(1R)-1-(2-Chlorophenyl)ethyl]oxy}-5-{6-[(1-methyl-4-piperidinyl)oxy]-1H-benzimidazol-1-yl}-2-thiophenecarboxamide]								
0.1 to 1 µM		0.01 to 1 µM		0.1 to 1 µM	> 0.05	0.1 to 1 µM	COc1cc2ncn(-c3cc(OCc4ccccc4C(F)(F)F)c(C(N)=O)s3)c2cc1OCCN1CCN(C)CC1 [Com. Ex 136, reference compound]	> 1 µM	0.1 to 1 µM						

Compound	IC50 (HCT116; [3])	solubility at 24 h [2]	IC50 (PLK1 kinase domain)	IC50 (A549; [6])	IC50 (MCF7; [7])	fraction unbound at 6 h, 2000 ng/mL (human plasma proteins)	IC50 (H460; [8])	IC50 [1, 4]	IC50 (RKO; [5])	IC50 (HCT116; HCT-116, 72 h, read-out: HCT116 IC50 (μM))	IC50 ([1]; read-out: HFF IC50 (μM))	IC50 (RKO; read-out: RKO IC50 (μM))	IC50 (A549; A549, 72 h, read-out: A549 IC50 (μM))	IC50 (MCF7; MCF7, 72 h, read-out: MCF7 IC50 (μM))	IC50 (H460; NCI-H460, 72 h, read-out: H460 IC50 (μM))
COc1cc2ncn(-c3cc(OC(C)c4ccccc4Cl)c(C(N)=O)s3)c2cc1OC (stereo not drawn) [Com. Ex 126, reference compound]						< 0.02				< 0.1 µM	0.1 to 1 µM	< 0.1 µM	< 0.1 µM	> 1 µM	< 0.1 µM
